From ChEMBL document CHEMBL5604063, “ASAP - DENV-2 NS2B-NS3 protease fluorescence dose response” (2024)
Several values for one entry are separate records, joined by “and”; a condition that tells them apart may be missing. Equal entries are not always repeated.

biological target: Genome polyprotein (dengue virus type 2, UniProt P29990); assay type: functional, Thailand/16681/1984
Sequence (P29990 1346-1475 limits assumed): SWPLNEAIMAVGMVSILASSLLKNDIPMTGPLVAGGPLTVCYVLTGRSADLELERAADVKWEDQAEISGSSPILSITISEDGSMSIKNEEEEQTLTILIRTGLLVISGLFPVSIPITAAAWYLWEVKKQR
Sequence (P29990 1476-2093 limits assumed): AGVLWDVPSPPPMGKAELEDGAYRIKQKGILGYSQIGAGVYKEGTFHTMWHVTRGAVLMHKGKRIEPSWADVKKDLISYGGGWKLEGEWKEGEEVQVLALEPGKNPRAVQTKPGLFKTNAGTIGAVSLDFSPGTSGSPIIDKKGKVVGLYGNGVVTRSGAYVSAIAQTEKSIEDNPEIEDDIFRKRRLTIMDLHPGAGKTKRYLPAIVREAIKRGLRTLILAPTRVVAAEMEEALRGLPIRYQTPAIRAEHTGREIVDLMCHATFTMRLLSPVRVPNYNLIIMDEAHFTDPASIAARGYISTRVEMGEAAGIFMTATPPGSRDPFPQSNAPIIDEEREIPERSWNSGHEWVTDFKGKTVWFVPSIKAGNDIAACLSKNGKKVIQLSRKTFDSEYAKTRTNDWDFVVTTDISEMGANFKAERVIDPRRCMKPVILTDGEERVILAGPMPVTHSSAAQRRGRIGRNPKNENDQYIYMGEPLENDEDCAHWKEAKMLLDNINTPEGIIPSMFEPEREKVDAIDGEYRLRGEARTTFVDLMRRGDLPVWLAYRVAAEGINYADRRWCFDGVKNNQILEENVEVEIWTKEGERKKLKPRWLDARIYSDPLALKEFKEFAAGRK

Row | SMILES | IC50
1 | NCc1cccc(NC(=O)[C@@H](NC(=O)OCc2ccccc2)c2ccc(Br)cc2)c1 | 88.3 µM and 63.1 µM
2 | O=C1C[C@@H](CNC(=O)c2cc(Cl)ccc2NS(=O)(=O)c2ccc(Oc3ccccc3Cl)cc2)CN1 | 79.3 µM
3 | COC1CN(C(=O)c2cc(Cl)ccc2NS(=O)(=O)c2ccc(Oc3ccccc3Cl)cc2)C1 | > 99.5 µM
4 | CC(C)(C)OC(=O)Cn1ccnc(N2CC[C@@H](CO)C2)c1=O | > 99.5 µM
5 | NC[C@H]1C[C@@H](NC(=O)[C@@H](NC(=O)OCc2ccccc2)c2ccc(OCc3ccccc3)cc2)C1 | > 99.5 µM
6 | CC[C@H](C#N)NC(=O)c1cc(Cl)ccc1NS(=O)(=O)c1ccc(Oc2ccccc2Cl)cc1 | 42.4 µM
7 | O=C(NC[C@H]1CCCO1)c1cc(Cl)ccc1NS(=O)(=O)c1ccc(Oc2ccccc2Cl)cc1 | > 99.5 µM
8 | O=C(NCc1c[nH]nn1)c1cc(Cl)ccc1NS(=O)(=O)c1ccc(Oc2ccccc2Cl)cc1 | 29.9 µM
9 | Cc1cc(Cl)c(C)c(C(=O)O)c1NS(=O)(=O)c1ccc(Oc2ccccc2Cl)cc1 | 36.5 µM
10 | O=C(N[C@@H](C(=O)NC1CNC1)c1ccc(OCc2ccccc2)cc1)OCc1ccccc1 | > 99.5 µM
11 | C[C@@H](C(=O)Nc1cccc(CN)c1)c1ccc(OCc2ccccc2)cc1 | > 99.5 µM
12 | NC[C@H]1CCN1C(=O)[C@@H](NC(=O)OCc1ccccc1)c1ccc(OCc2ccccc2)cc1 | > 99.5 µM
13 | CC(C)Oc1ccc(S(=O)(=O)Nc2ccc(Cl)cc2C(=O)O)cc1 | > 99.5 µM
14 | O=C(NC[C@H]1CCOC1)c1cc(Cl)ccc1NS(=O)(=O)c1ccc(Oc2ccccc2Cl)cc1 | 32.9 µM and 24 µM
15 | O=C(O)c1cc(Cl)ccc1CS(=O)(=O)c1ccc(Oc2ccccc2Cl)cc1 | > 99.5 µM
16 | NCc1cccc(NC(=O)[C@@H](NC(=O)OCc2ccccc2)C2CCCCC2)c1 | > 99.5 µM
17 | CC(C)(C)OC(=O)NCc1cccc(NC(=O)[C@@H](NC(=O)OCc2ccccc2)c2ccc(O)cc2)c1 | > 99.5 µM
18 | Cc1cc(C(=O)O)c(NS(=O)(=O)c2ccc(Oc3ccccc3Cl)cc2)cc1F | 8.69 µM
19 | NCc1cccc(NC(=O)C[C@@H](NC(=O)OCc2ccccc2)c2ccc(OCc3ccccc3)cc2)c1 | 10.4 µM
20 | CCn1cc(-c2ccccc2)nc(N2CC[C@@H](CO)C2)c1=O | > 99.5 µM
21 | Cn1cc(C(=O)O)c(NS(=O)(=O)c2ccc(Oc3ccccc3Cl)cc2)n1 | > 99.5 µM
22 | NCc1cccc(NC(=O)[C@@H](Cc2ccccc2)NC(=O)OCc2ccccc2)c1 | > 99.5 µM
23 | COc1ccc(S(=O)(=O)Nc2cc(F)c(Cl)cc2C(=O)NCC(C)C)cc1 | 97 µM
24 | NCc1cccc(NC(=O)[C@@H](NC(=O)OCc2ccccc2)c2c(F)cccc2F)c1 | > 99.5 µM
25 | C[C@@H](N)c1cccc(NC(=O)[C@@H](NC(=O)OCc2ccccc2)c2ccc(OCc3ccccc3)cc2)c1 | > 99.5 µM

Row | SMILES | IC50
26 | O=C(O)c1cc(Cl)ccc1NS(=O)(=O)c1ccc(Oc2ccccc2)cc1 | 21.7 µM
27 | Cc1cnn(-c2cc(C(=O)O)c(NS(=O)(=O)c3ccc(Oc4ccccc4Cl)cc3)cc2F)c1 | 6.2 µM
28 | CCn1cc(Cl)nc(N2CC[C@@H](CO)C2)c1=O | > 99.5 µM
29 | NC(=O)[C@H](c1c[nH]c2ccccc12)N1CCC(c2cnc3ccc[nH]c2-3)CC1 | > 99.5 µM
30 | O=C(O)c1cc(OC2CCOCC2)c(F)cc1NS(=O)(=O)c1ccc(Oc2ccccc2Cl)cc1 | 13.7 µM
31 | OC[C@H]1CCN(c2cncc(N3CCOCC3)n2)C1 | > 99.5 µM
32 | C#CCn1ccnc(N2CC[C@H](CO)C2)c1=O | > 99.5 µM
33 | O=S(=O)(c1ccc(Oc2ccccc2Cl)cc1)n1ccc2cc(Cl)ccc21 | > 99.5 µM
34 | Cc1cc(C(=O)O)c(NS(=O)(=O)c2ccc(Oc3ccccc3)cc2)cc1F | 24.9 µM
35 | CC(C)Oc1cncc(N2CC[C@@H](CO)C2)c1 | > 99.5 µM
36 | O=C(O)c1cc(Cl)c(Cl)cc1NS(=O)(=O)c1ccc(Oc2ccccc2Cl)cc1 | 6.6 µM
37 | Cn1cc(NS(=O)(=O)c2ccc(Oc3ccccc3Cl)cc2)c(C(=O)O)n1 | > 99.5 µM
38 | O[C@@H]1CN(Cc2c[nH]c3ccccc23)C[C@H]1c1c[nH]c2ccccc12 | > 99.5 µM
39 | CCn1ccnc(-n2cc([C@@H]3NC(=O)NC3=O)c3ccccc32)c1=O | > 99.5 µM
40 | CCn1cc(-c2ccnc(C)c2)nc(N2CC[C@@H](CO)C2)c1=O | > 99.5 µM
41 | NCc1cccc(NC(=O)[C@@H](N)c2ccc(OCc3ccccc3)cc2)c1 | > 99.5 µM
42 | NCc1cccc(NC(=O)[C@H](NC(=O)OCc2ccccc2)c2ccc(OCc3ccccc3)cc2)c1 | 8.05 µM
43 | NCc1cccc(CNC(=O)[C@@H](NC(=O)OCc2ccccc2)c2ccc(OCc3ccccc3)cc2)c1 | 21.7 µM and 12 µM
44 | O=C(Nc1ccc(Cl)cc1C(=O)O)c1ccc(Oc2ccccc2Cl)cc1 | 42.5 µM
45 | O=C(O)c1cc(Oc2ccc(F)cc2)c(F)cc1NS(=O)(=O)c1ccc(Oc2ccccc2Cl)cc1 | 3.76 µM
46 | CCn1ccc(-c2ccc([C@@H](NC(=O)OCc3ccccc3)C(=O)Nc3cccc(CN)c3)cc2)n1 | > 99.5 µM
47 | COC(=O)c1cc(Cl)ccc1NS(=O)(=O)c1ccc(Br)cc1 | > 99.5 µM
48 | C[C@@H](O)CNC(=O)c1cc(Cl)ccc1NS(=O)(=O)c1ccc(Oc2ccccc2Cl)cc1 | 56.6 µM
49 | O=C(O)c1c(NS(=O)(=O)c2ccc(Oc3ccccc3Cl)cc2)ccc(Cl)c1F | 18.1 µM
